From ChEMBL document CHEMBL1147881, “Synthesis and herbicidal activity of novel pyrazolo[3,4-d]pyrimidin-4-one derivatives containing aryloxyphenoxypropionate moieties” (2007)

How the values were obtained:
Assay type in all cases: functional
Brassica napus [1] = experiment: Herbicidal activity against rape assessed as inhibition of root growth at 10 mg/L relative to control
Echinochloa crus-galli [2] = experiment: Herbicidal activity against barnyard grass assessed as inhibition of root growth at 10 mg/L relative to control
Echinochloa crus-galli [3] = experiment: Herbicidal activity against barnyard grass assessed as inhibition of stalk growth at 100 mg/L relative to control
Echinochloa crus-galli [4] = experiment: Herbicidal activity against barnyard grass assessed as inhibition of stalk growth at 10 mg/L relative to control
Brassica napus [5] = experiment: Herbicidal activity against rape assessed as inhibition of root growth at 100 mg/L relative to control
Brassica napus [6] = experiment: Herbicidal activity against rape assessed as inhibition of stalk growth at 10 mg/L relative to control
Echinochloa crus-galli [7] = experiment: Herbicidal activity against barnyard grass assessed as inhibition of root growth at 100 mg/L relative to control
Brassica napus [8] = experiment: Herbicidal activity against rape assessed as inhibition of stalk growth at 100 mg/L relative to control

| SMILES | inhibition at 10 µg/mL (Brassica napus [1]) | inhibition at 10 µg/mL (Echinochloa crus-galli [2]) | inhibition at 100 µg/mL (Echinochloa crus-galli [3]) | inhibition at 10 µg/mL (Echinochloa crus-galli [4]) | inhibition at 100 µg/mL (Brassica napus [5]) | inhibition at 10 µg/mL (Brassica napus [6]) | inhibition at 100 µg/mL (Echinochloa crus-galli [7]) | inhibition at 100 µg/mL (Brassica napus [8]) |
| --- | --- | --- | --- | --- | --- | --- | --- | --- |
| CCCOC(=O)C(C)Oc1ccc(Oc2nc3c(c(SC)nn3-c3ccccc3)c(=O)n2C(=O)Nc2ccccc2Cl)cc1 (stereo not drawn) | 5.5% | 53.4% | 25.8% | 25.8% | 36.7% | 10.6% | 64.3% | 8.5% |
| COC(=O)C(C)Oc1ccc(Oc2nc3c(c(S(C)(=O)=O)nn3-c3ccccc3)c(=O)n2C(=O)Nc2ccccc2F)cc1 (stereo not drawn) | 16.3% | 33.3% | -21% | 10.5% | 28% | 0% | 53.3% | 0% |
| CCCOC(=O)C(C)Oc1ccc(Oc2nc3c(c(S(C)(=O)=O)nn3-c3ccccc3)c(=O)n2C(=O)Nc2ccccc2Cl)cc1 (stereo not drawn) | 17.4% | 50% | 23.3% | 16.7% | 67.4% | -17.8% | 80% | 42.2% |
| COC(=O)C(C)Oc1ccc(Oc2nc3c(c(SC)nn3-c3ccccc3)c(=O)n2C(=O)Nc2ccccc2)cc1 (stereo not drawn) | 40.2% | 63% | 68.9% | 44.8% | 96.1% | 20.5% | 93.5% | 76.9% |
| CCOC(=O)COc1ccc(Oc2nc3c(c(SCc4ccccc4)nn3-c3ccccc3)c(=O)n2C(=O)Nc2cccc(C)c2)cc1 | 20.6% | 66.7% | -10.5% | 5.3% | 64.1% | 20% | 75.5% | 24% |
| CCOC(=O)C(C)Oc1ccc(Oc2nc3c(c(S(=O)(=O)Cc4ccccc4)nn3-c3ccccc3)c(=O)n2C(=O)Nc2cccc(C)c2)cc1 (stereo not drawn) | 9.8% | 50% | 16.7% | 13.3% | 34.8% | 6.7% | 72.5% | 6.7% |
| CCOC(=O)C(C)Oc1ccc(Oc2nc3c(c(SCc4ccccc4)nn3-c3ccccc3)c(=O)n2C(=O)Nc2cccc(C)c2)cc1 (stereo not drawn) | 24.4% | 33.3% | -6.4% | -6.4% | 32.2% | -2.1% | 61.9% | 10.6% |
| COC(=O)C(C)Oc1ccc(Oc2nc3c(c(S(C)(=O)=O)nn3-c3ccccc3)c(=O)n2C(=O)Nc2ccccc2)cc1 (stereo not drawn) | 25% | 66.7% | 31.6% | 5.3% | 80.4% | 13.3% | 93.3% | 48.9% |
| CCOC(=O)C(C)Oc1ccc(Oc2nc3c(c(S(C)(=O)=O)nn3-c3ccccc3)c(=O)n2C(=O)Nc2cccc(C)c2)cc1 (stereo not drawn) | 51% | 54.3% | 51.7% | 3.4% | 98% | 17.9% | 95.6% | 74.4% |
| CCOC(=O)C(C)Oc1ccc(Oc2nc3c(c(SC)nn3-c3ccccc3)c(=O)n2C(=O)Nc2ccccc2)cc1 (stereo not drawn) | 57.4% | 57.7% | 32.3% | 12.9% | 86.1% | 12.9% | 88.5% | 46.2% |
| CCOC(=O)C(C)Oc1ccc(Oc2nc3c(c(SC)nn3-c3ccccc3)c(=O)n2C(=O)Nc2cccc(C)c2)cc1 (stereo not drawn) | 46.5% | 59.6% | 0% | -12.9% | 97% | 9.6% | 88.5% | 63.5% |
